Measurements published in US20120207722A1, “Use Of Adipose Tissue Cells For Initiating The Formation Of A Functional Vascular Network” (CENTRE NATIONAL DE LA RECHERCHE SCIENTIFIQUE, priority 2003, published 2012).

Test system: hind limb rendered ischemic
Test: Hind limb ischemia model, SVF-CULT cells with modified redox state (antimycin and/or PDTC)
Type: in vivo, mouse
Details: daily i.p. injection (50 μl at 40 nM) after the injection of the SVF-CULT cells
Method: The angiogenic potential of the SVF-CULT cells treated, in vitro, with antimycin (40 nM) and/or pyrrolidine dithiocarbamate (PDTC; 0.5 mM) two days before the injection, was analyzed in the model of the mouse with a hind limb rendered ischemic, as described in Example 1. Furthermore, after the injection of the SVF-CULT cells treated with antimycin alone, by adding antimycin to the culture medium, or not treated, the mice were or were not given a daily i.p. injection of antimycin (50 μl at 40 nM). The mice treated similarly with PDTC alone or in combination with antimycin receive no treatment after the injection of cells.
The angiogenic potential of the nontreated SVF-CULT cells, in mice not treated after the injection of the cells, was analyzed in parallel, by way of comparison. The control group was given an injection of ethanol, under the same conditions.
The neovascularization process was analyzed by microangiography and, optionally, by laser Doppler, 8 days after femoral occlusion. The statistical analysis was carried out by means of an ANOVA-type variance test for comparing each parameter (n=5 for each group). A Bonferroni t test subsequently made it possible to identify the groups causing these differences. A value of P<0.05 is considered to be significant.

antimycin
effect on revascularization when administered directly to the animal: no effect
